{"source": "patent US9402399B2", "about": "“Pesticidal mixtures including isoxazoline derivatives” (Syngenta Participations AG, priority 2011, dated 2016)", "test_system": "Tetranychus urticae", "assay": "Tetranychus urticae (Two Spotted Spider Mite) contact/feeding activity, adult mortality on sprayed bean plants", "type": "in vivo", "method": "Tetranychus urticae (Two Spotted Spider Mite)\n(Contact/Feeding Activity)\nBean plants are infested with mite populations of mixed ages. 1 day after infestation, plants are treated in a spray chamber with diluted test solutions. 1 and 8 days later, samples are checked for adult mortality. 2 replicates per treatment were evaluated.\nData is not shown for experiments where there was no insect mortality when the compounds were applied alone and in combination. When a compound applied alone gave no control at a particular rate, it is assumed that lower rates of that compound alone also give no control."}
{"smiles": "CC1(C)[C@H](C(=O)O[C@H](C#N)c2cccc(Oc3ccccc3)c2)[C@@H]1/C=C(\\Cl)C(F)(F)F", "note": "(racemic) [LCYH, lambda cyhalothrin]", "values": [{"measurement": "LCYH observed control %", "setting": "LCYH alone 0.781 ppm", "result": 0, "unit": "%"}, {"measurement": "LCYH observed control %", "setting": "LCYH alone 1.562 ppm", "result": 0, "unit": "%"}, {"measurement": "LCYH observed control %", "setting": "LCYH alone 3.125 ppm", "result": 0, "unit": "%"}, {"measurement": "LCYH observed control %", "setting": "LCYH alone 6.25 ppm", "result": 25, "unit": "%"}, {"measurement": "LCYH observed control %", "setting": "LCYH alone 12.5 ppm", "result": 75, "unit": "%"}, {"measurement": "LCYH observed control %", "setting": "LCYH alone 25 ppm", "result": 80, "unit": "%"}, {"measurement": "LCYH observed control %", "setting": "LCYH alone 50 ppm", "result": 85, "unit": "%"}, {"measurement": "LCYH observed control %", "setting": "LCYH alone 100 ppm", "result": 95, "unit": "%"}]}
{"smiles": "CC(C)c1cc(Oc2ccccc2)cc(C(C)C)c1NC(=S)NC(C)(C)C", "note": "[DFN, diafenthiuron]", "values": [{"measurement": "DFN observed control %", "setting": "DFN alone 1.562 ppm", "result": 0, "unit": "%"}, {"measurement": "DFN observed control %", "setting": "DFN alone 3.125 ppm", "result": 0, "unit": "%"}, {"measurement": "DFN observed control %", "setting": "DFN alone 6.25 ppm", "result": 25, "unit": "%"}, {"measurement": "DFN observed control %", "setting": "DFN alone 12.5 ppm", "result": 60, "unit": "%"}, {"measurement": "DFN observed control %", "setting": "DFN alone 25 ppm", "result": 95, "unit": "%"}]}
{"smiles": "CN1COCN(Cc2cnc(Cl)s2)/C1=N\\[N+](=O)[O-]", "note": "[TMX, thiamethoxam]", "values": [{"measurement": "TMX observed control %", "setting": "TMX alone 50 ppm", "result": 0, "unit": "%"}, {"measurement": "TMX observed control %", "setting": "TMX alone 100 ppm", "result": 0, "unit": "%"}, {"measurement": "TMX observed control %", "setting": "TMX alone 200 ppm", "result": 0, "unit": "%"}, {"measurement": "TMX observed control %", "setting": "TMX alone 400 ppm", "result": 0, "unit": "%"}]}
